# Results published in patent US8916686B2, “TDF-related compounds and analogs thereof” (Thrasos Innovation, Inc., priority 2004, dated 2014).
# Tests used:
# [1] = system: Smad1; assay: Smad1 nuclear translocation in HK-2 cells (immunofluorescence); type: cell-based, human; settings: 1.3 uM and 33 uM compound
# Procedure: Phosphorylation and nuclear translocation of Smads occurs following the activation of Type I and Type II receptors and subsequent signal transduction to intracellular Smad targets. Phosphorylation and nuclear translocation of R-Smad in HK-2 cells by TDFRP compounds is assayed by immuno-fluorescent microscopy methods, using anti-phospho Smad 1/5 antibodies according to the procedure of H Aoki, M Fujii, T Imamura, K Yagi, K Takehara, M Kato and K Miyazono. J. of Cell Sci. 114, 1483-1489, 2001) and by Western blot analysis (FIG. 15A-FIG. 15C).
# HK2, human proximal tubule cells are incubated in culture medium alone or exposed TDFRP or control compounds for one hour ten minutes at 37 degree C. BMP-7 served as a positive control in the assay. Each well is rinsed with 1 mL prewarmed medium. 1 mL per well of cold Acetone/Methanol mix (1:1) is added and incubated for 2 minutes at room temperature to fix the cells. Wells are washed with 1 mL of cold PBS and blocked with 1 mL blocking buffer (3% BSA, 1% goat serum in PBS) for 7 minutes. Wells are aspirated without disturbing the cells, and 500 uL/well primary antibody is added (anti-phospho-Smad 1) at 0.056 ug/mL concentration in 3% BSA in PBS (no goat serum). Cells are incubated overnight at 4 degrees C. […]
# [2] = system: mouse model of nephrotoxic serum nephritis; assay: Nephrotoxic serum nephritis (NTN) model of chronic renal injury; type: in vivo; settings: oral 5 mg/kg/24 hr
# Procedure: Attenuation of renal fibrosis progression by Thrasos compound in a mouse model of nephrotoxic serum nephritis. FIG. 8A: Kidney section of vehicle-treated animal, FIG. 8B: Kidney section of animal received oral administration of compound SEQ ID NO 45 (5 mg/kg/24 hr).
# Nephrotoxic serum nephritis (NTN) is a model of progressive chronic renal injury. Mice given injections of nephrotoxic serum (NTS) develop glomerulonephritis, leading to tubulointerstitial disease associated with EMT, and ultimately renal fibrosis, over a period of about six weeks. […] In these studies, BMP-7 was able to restore expression of E-cadherin proteins in previously damaged tubules. […] For a review of the above see, Zeisberg et al., Nature Medicine, 9; 7 pp 964-968, (2003) and Kalluri et al., J. Clin Investigation 112:1776-1784 (2003).
# [3] = system: rat after ligation of the coronary artery; assay: LAD occlusion model of myocardial injury (ischemia/reperfusion); type: in vivo
# Procedure: The efficacy of compound SEQ ID #45 in ameliorating the effects of myocardial ischemia was investigated in the rat after ligation of the coronary artery. […] unmanipulated rats, sorted into two large groups by initial body weight (>300 g pre-surgery) were evaluated. Fourteen rats underwent surgery on week, 12 rats underwent surgery on week 2 and rats were sorted into 3 treatment groups: Group 1, PBS; Group 2, positive control TDF-1; Group 3, test article SEQ ID #45 (see Table X).
# Three days prior to surgery, a serum sample was collected from the tail vein of each rat (pre-bleed). On the day of surgery, each rat was administered compound intravenously 2 hr prior to surgery. Surgery was performed sequentially after intubation and ventilation with 0.5% isofluorane anesthetic. Lead II ECG was monitored throughout the surgery. A thoracotomy was performed and the main left coronary artery was occluded for 20 min using a snare technique (FIG. 16). Successful occlusion of the artery was confirmed by ST elevation in lead II ECG within the first 5 minutes of ligation, and by frequent ventricular arrhythmia after 10 minutes of ligation. The snare was released to restore blood flow. The original suture loop was left in place for subsequent re-occlusion on Day 7. After initiation of reperfusion, the chest cavity was closed with 2 layers of suture. Rats were weaned from the ventilator and observed until fully conscious and mobile. Antibiotic (QD) and analgesic (Q8D) were provided. Additional serum samples were collected 6, 24, 72 and 120 hours post occlusion. Additional compound, positive control or vehicle treatments were delivered by intravenous injection in the tail vein at 24, 72 and 120 hours post occlusion.
# On Day 7, each rat was anesthetized (ketamine:xyline), the chest cavity re-opened and a terminal blood sample (1 ml) was withdrawn from the abdominal vein. Gross pathology (i.e. inflammation) was noted and graded on a 4 point inflammation scale: 0=no inflammation, 1=slight, 2=moderate, 3=severe and 4=complete pericarditis. The left coronary artery was then re-occluded using the existing stitch and a concentrated solution of Evans Blue dye in saline (20 mg/ml; 0.5 ml/rat) was injected into the heart apex to stain the non-ischemic cardiac tissue blue. The heart was then arrested by injection of a saturated solution of potassium chloride into the right ventricle. The heart was then excised, wrapped in cellophane and stored at −20° C. for 1.5 hour. The cold heart was cut into 10 cross-sectional slices (2 mm/slice) and each section was numbered and incubated separately in triphenyltetrazolium chloride (1% TTC in PBS) for 10 minutes at 37° C. prior to fixing in 4% formaldehyde. Subsequently, each slice was photographed. For each slice, the “area at risk (AR)” and the “area occupied by necrosis (AN)” were measured by morphometry. The ratio of AN to AR is a measure of the degree of damage resulting from the occlusion (FIG. 17A-FIG. 17B).
sequence,measurement,setting,value
CYFDDSSNVLCKKYRS [SEQ ID NO 45],Smad1 translocation,[1],Smad1 Translocation
same,renal fibrosis,[2],significantly attenuated progression of renal fibrosis
same,degree of cardiac inflammation,[3]; LAD occlusion model,reduces the degree of cardiac inflammation
same,necrotic area to area at risk ratio (IA/AR),[3]; LAD occlusion model,reduces the necrotic area to area at risk ratio (IA/AR)
same,reduction in inflammation score as compared to PBS-treated animals,"[3]; day 7, 10 mg/kg i.v., 4 point inflammation scale",78%
same,reduction in AN/AR ratio as compared to PBS-treated animals,"[3]; day 7, compound 10 mg/kg i.v., rhmBMP-7 160 μg/kg i.v.",84%
same,inflammation and cytotoxic effects toward cardiomyocytes following myocardial infarction,[3]; myocardial ischemia and reperfusion injury,ameliorate inflammation and cytotoxic effects toward cardiomyocytes
